Format in all cases: in vivo
Series [1] deals with Cotton Aphid (Aphis gossypii). Nature of the series: Test (foliar spraying) for controlling cotton aphid. The conditions noted are these: 120 h, 5 days after treatment; for mortality at 200 ppm: foliar spraying on cucumber leaf; for mortality at 50 ppm / mortality at 3.1 ppm / mortality at 12.5 ppm: foliar spraying. How it is done: A cucumber leaf cut to a diameter of 3.5 cm was placed on cotton wool moistened with water. Two adult cotton aphids were released there for offspring for 24 hours and the adult insects were then removed. […] After air-drying, the sample with cotton wool was placed in a plastic cup, which was covered with a lid and kept in a chamber at a constant temperature of 25° C. for rearing.

For series [2], the system named is Southern Yellow thrips (Thrips palmi). The experiment in a line: Test (foliar spraying) for controlling southern yellow thrips. The conditions noted are these: 3 days after treatment; for mortality at 200 ppm: 72 h, foliar spraying on cucumber leaf, first instar larvae; for Mortality of Thrips palmi (%): foliar spraying. How it is done: A cucumber leaf cut to a diameter of 1.5 cm was placed on cotton wool moistened with water. […] After air-drying, 5 larvae of southern yellow thrips in the first instar larva were released there. The sample with cotton wool was placed in a plastic cup, which was covered with a lid and kept in a chamber at a constant temperature of 25° C. for rearing.

Series [3] relates to Brown Planthopper (Nilaparvata lugens). The experiment in a line: Test (foliar dipping) for controlling brown planthopper. The note with it: 120 h, rice seedlings dipped, 5 days after treatment; for mortality at 200 ppm: third instar larvae. How it is done: […] After air-drying, the rice seedlings held with urethane in a glass cylinder having an inner diameter of 4.5 cm and a length of 14 cm were set up in a plastic cup containing 40 mL of water. Larvae of brown planthoppers in the third instar larva were released there. The cylinder was covered with a lid of medicine paper and kept in a chamber at a constant temperature of 25° C. for rearing.

For series [4] the test system is unchanged. The experiment in a line: Test (root dipping) for controlling brown planthopper. The conditions noted are these: 200 ppm, root dipping of rice seedlings, larvae released after 2 days, 5 days after treatment. How it is done: Ten sampled rice seedlings held with urethane in a glass cylinder having an inner diameter of 4.5 cm and a length of 14 cm were set up in a plastic cup containing 40 mL of chemical solution diluted to a desired concentration. After 2 days, 10 larvae of brown planthoppers in the third instar larva were released in the glass cylinder. The glass cylinder was covered with a lid of medicine paper and kept in a chamber at a constant temperature of 25° C. for rearing.

Series [5] shares this test system. Nature of the series: Residual effect test (field experiment) for brown planthopper. How it is done: The roots of five sampled rice seedlings were washed with water. Subsequently, 25 mg of the wettable powder prepared in accordance with Formulation Example 2 described above was wrapped in the roots. Each strain was made from the five seedlings. In outdoor artificial paddy fields made from wooden frames having a size of 60 cm by 90 cm, 10 strains were planted, respectively. The artificial paddy field was shielded by an insect screen with a mesh size of 1 mm, so that invasion of harmful insects from the outside was prevented. Into the test system, 40 to 100 adult brown planthoppers were released at fixed intervals so as to cause damage to the rice. On 16 to 51 days after the treatment, the numbers of surviving insects and dead insects were measured to calculate the density index. The density index was obtained from the following expression.

Structures can show the parent of a compound that is named as a salt.

By mortality is commonly meant the percentage killed. Turning to `N#CCC[n+]1c([O-])c(-c2ccccc2)c(=O)n2ccccc21` [Compound 1, 1-(2-cyanoethyl)-2-hydroxy-4-oxo-3-phenyl-4H-pyrido[1,2-a]pyrimidinium inner salt], the mortality at 200 ppm in series [1], in series [2] and in series [3] was not below 80% throughout. Besides, the mortality at 0.012 ppm in series [3] (0.012 ppm) was 50%. In series [3] (0.024 ppm), this molecule registered a mortality at 0.024 ppm of 60%. This molecule also had a mortality at 0.049 ppm in series [3] (0.049 ppm) of 70%.

Consider `COc1cccc(-c2c([O-])[n+](CCC#N)c3ccccn3c2=O)c1` [Compound 18, 1-(2-cyanoethyl)-2-hydroxy-3-(3-methoxyphenyl)-4-oxo-4H-pyrido[1,2-a]pyrimidinium inner salt], for which the mortality at 200 ppm in series [1], in series [2] and in series [3] was not below 80% in each case. Further, the “Mortality of Thrips palmi (%)” value in series [2] (3.1 ppm), in series [2] (12.5 ppm) and in series [2] (50 ppm) was 100% each time. Also, the mortality at 0.01 ppm in series [3] stood at 10%. This molecule returned a mortality at 0.02 ppm in series [3] of 20%. Further, the mortality at 0.05 ppm in series [3] turned out to be 100%.

`Cc1cccc(-c2c([O-])[n+](CCCCCC#N)c3ccccn3c2=O)c1` [Comparative compound 2]: in series [1], the mortality at 50 ppm stood at 0% and the mortality at 200 ppm is 20%.

In series [1], `Cc1cccc(-c2c([O-])[n+](CCCCCCCC#N)c3ccccn3c2=O)c1` [Comparative compound 1] gave a mortality at 200 ppm of 0%.

In series [1], `N#CC[n+]1c([O-])c(-c2cccc(C(F)(F)F)c2)c(=O)n2ccccc21` [Comparative compound 5] had a mortality at 3.1 ppm of 0% and a mortality at 12.5 ppm of 10%.

In series [1], `N#CCCC[n+]1c([O-])c(-c2cccc(C(F)(F)F)c2)c(=O)n2ccccc21` [Comparative compound 4] registered a mortality at 3.1 ppm of 0% and a mortality at 12.5 ppm of 75%.

With `CC(CC#N)[n+]1c([O-])c(-c2cccc(C(F)(F)F)c2)c(=O)n2ccccc21` (stereo not shown) [Comparative compound 7], the mortality at 200 ppm in series [1] stood at 0%.

In series [1], `CC(C#N)C[n+]1c([O-])c(-c2cccc(C(F)(F)F)c2)c(=O)n2ccccc21` (stereo not shown) [Comparative compound 6] came in with a mortality at 12.5 ppm of 50% and a mortality at 50 ppm of 100%.

For `Cc1cccn2c(=O)c(-c3cc(Cl)cc(Cl)c3)c([O-])[n+](Cc3cnc(Cl)s3)c12` [Dicloromezotiaz], the mortality at 12.5 ppm in series [1] was 0%. Moreover, in series [1], the mortality at 50 ppm turned out to be 90%. For the same molecule, the mortality at 200 ppm in series [1] came out at 100%; in series [2], 0%; in series [4], 0%; in series [3] it was 0%.

Turning to `N#Cc1nn(-c2c(Cl)cc(C(F)(F)F)cc2Cl)c(N)c1[S+]([O-])C(F)(F)F` (stereo not shown) [Fipronil, reference compound], the “Density index of Nilaparvata lugens” value in series [5] (After 16 days, 25 mg wettable powder (Formulation Example 2) at roots per strain, outdoor artificial paddy field) was found to be 0; in series [5] (After 23 days, 25 mg wettable powder at roots per strain, artificial paddy field), 5.4; in series [5] (After 30 days, 25 mg wettable powder at roots per strain, artificial paddy field), 56.2; in series [5] (After 37 days, 25 mg wettable powder at roots per strain, artificial paddy field), 73.9; in series [5] (After 44 days, 25 mg wettable powder at roots per strain, artificial paddy field) it was 105; in series [5] (After 51 days, 25 mg wettable powder at roots per strain, artificial paddy field) it was 98.4.

In series [1], `CCOc1cccc(-c2c([O-])[n+](CCC#N)c3ccccn3c2=O)c1` [Compound 21, 1-(2-cyanoethyl)-3-(3-ethoxyphenyl)-2-hydroxy-4-oxo-4H-pyrido[1,2-a]pyrimidinium inner salt] returned a mortality at 200 ppm not below 80%. The molecule also had a mortality at 200 ppm in series [2] not below 80%. In series [3], this molecule yielded a mortality at 0.01 ppm of 10%, a mortality at 0.02 ppm of 70%, a mortality at 0.05 ppm of 80% and a mortality at 200 ppm not below 80%.

In series [1], `Cc1cccc(-c2c([O-])[n+](CCCCC#N)c3ccccn3c2=O)c1` [Comparative compound 3] had a mortality at 12.5 ppm of 0%, a mortality at 50 ppm of 40% and a mortality at 200 ppm of 100%.

Source of the values: patent publication US20180310564A1, “Mesoionic Compound” (Nippon Kayaku Kabushiki Kaisha, priority 2015, published 2018).
